ChEMBL document CHEMBL5608215, “Development of amphipathic derivatives of thymol and carvacrol as potent broad-spectrum antibacterial agents” (Eur J Med Chem, 2024)
≈ marks a conversion by molar mass, not a printed value.

How the values were obtained:
Type in all cases: functional
Staphylococcus aureus [1] = test: Antibacterial activity against Staphylococcus aureus ATCC29213 by CLSI based serial dilution method
Staphylococcus aureus [2] = test: Antibacterial activity against methicillin-resistant Staphylococcus aureus 21-5 by CLSI based serial dilution method
Enterococcus faecalis = test: Antibacterial activity against Enterococcus faecalis ATCC29212 by CLSI based serial dilution method
Enterococcus = test: Antibacterial activity against vancomycin-resistant Enterococcus ATCC51299 by CLSI based serial dilution method
Escherichia coli = test: Antibacterial activity against Escherichia coli ATCC25922 by CLSI based serial dilution method
Pseudomonas aeruginosa = test: Antibacterial activity against Pseudomonas aeruginosa ATCC27853 by CLSI based serial dilution method

Row | SMILES | MIC (Staphylococcus aureus [1]) [µg/mL] | MIC (Staphylococcus aureus [2]) [µg/mL] | MIC (Enterococcus faecalis) [µg/mL] | MIC (Enterococcus) [µg/mL] | MIC (Escherichia coli) [µg/mL] | MIC (Pseudomonas aeruginosa) [µg/mL]
1 | Cc1ccc(C(C)C)cc1OCCCCC[N+](C)(C)CC(=O)N1CCSCC1.[Br-] | 32 | 128 | 32 | 64 | 128 | > 128
2 | CCCCCCN(CCCCCC)C(=O)C[N+](C)(C)CCCOc1cc(C)ccc1C(C)C.[Br-] | 16 | > 128 | 16 | 32 | 128 | > 128
3 | CCCCN(CCCC)C(=O)C[N+](C)(C)CCCCCOc1cc(C(C)C)ccc1C.[Br-] | 1 | 2 | 2 | 32 | 16 | 32
4 | CCCNC(=O)C[N+](C)(C)CCCCOc1cc(C(C)C)ccc1C.[Br-] | 64 | > 128 | 64 | > 128 | 128 | > 128
5 | CCCCCCN(CCCCCC)C(=O)C[N+](C)(C)CCCCCOc1cc(C(C)C)ccc1C.[Br-] | 1 | 16 | 1 | 1 | 8 | 16
6 | CCCN(CCC)C(=O)C[N+](C)(C)CCCCOc1cc(C)ccc1C(C)C.[Br-] | 8 | 16 | 32 | 64 | 128 | > 128
7 | Cc1ccc(C(C)C)cc1OCCC[N+](C)(C)CC(=O)N(C(C)C)C(C)C.[Br-] | 16 | 64 | 32 | 32 | 128 | > 128
8 | CCCCNC(=O)C[N+](C)(C)CCCCCOc1cc(C)ccc1C(C)C.[Br-] | 8 | 16 | 16 | 64 | 64 | > 128
9 | Cc1ccc(C(C)C)cc1OCCC[N+](C)(C)CC(=O)N(CC(C)C)CC(C)C.[Br-] | 4 | 16 | 16 | 16 | 64 | > 128
10 | CCCCCNC(=O)C[N+](C)(C)CCCCCOc1cc(C(C)C)ccc1C.[Br-] | 4 | 8 | 8 | 16 | 16 | 64
11 | CCCN(CCC)C(=O)C[N+](C)(C)CCCCCOc1cc(C(C)C)ccc1C.[Br-] | 8 | 16 | 8 | 16 | 64 | > 128
12 | Cc1ccc(C(C)C)c(OCCCCC[N+](C)(C)CC(=O)N(C(C)C)C(C)C)c1.[Br-] | 4 | 2 | 8 | 16 | 64 | > 128
13 | CCCCCCCNC(=O)C[N+](C)(C)CCCOc1cc(C)ccc1C(C)C.[Br-] | 1 | 8 | 2 | 4 | 4 | 16
14 | Cc1ccc(C(C)C)cc1OCCC[N+](C)(C)CC(=O)N1CCSCC1.[Br-] | 64 | 128 | 64 | > 128 | 128 | > 128
15 | CCCCCCCNC(=O)C[N+](C)(C)CCCCCOc1cc(C(C)C)ccc1C.[Br-] | 1 | 4 | 1 | 2 | 4 | 8
16 | Cc1ccc(C(C)C)cc1OCCCC[N+](C)(C)CC(=O)N(CC(C)C)CC(C)C.[Br-] | 4 | 4 | 8 | 8 | 64 | > 128
17 | CCCNC(=O)C[N+](C)(C)CCCCOc1cc(C)ccc1C(C)C.[Br-] | 64 | 128 | 128 | > 128 | > 128 | > 128
18 | CCCCCCNC(=O)C[N+](C)(C)CCCCOc1cc(C(C)C)ccc1C.[Br-] | 2 | 8 | 4 | 8 | 16 | 32
19 | CCCCN(CCCC)C(=O)C[N+](C)(C)CCCOc1cc(C(C)C)ccc1C.[Br-] | 4 | 8 | 8 | 16 | 64 | > 128
20 | CCCNC(=O)C[N+](C)(C)CCCOc1cc(C(C)C)ccc1C.[Br-] | 128 | > 128 | 128 | > 128 | > 128 | > 128
21 | Cc1ccc(C(C)C)cc1OCCCC[N+](C)(C)CC(=O)N(C(C)C)C(C)C.[Br-] | 8 | 16 | 16 | 32 | 128 | > 128
22 | Cc1ccc(C(C)C)c(OCCCCC[N+](C)(C)CC(=O)N2CCSCC2)c1.[Br-] | 32 | 32 | 32 | 128 | 128 | > 128

Row | SMILES | MIC (Staphylococcus aureus [1]) [µg/mL] | MIC (Staphylococcus aureus [2]) [µg/mL] | MIC (Enterococcus faecalis) [µg/mL] | MIC (Enterococcus) [µg/mL] | MIC (Escherichia coli) [µg/mL] | MIC (Pseudomonas aeruginosa) [µg/mL]
23 | Cc1ccc(C(C)C)c(OCCC[N+](C)(C)CC(=O)N2CCOCC2)c1.[Br-] | > 128 | > 128 | > 128 | > 128 | 128 | > 128
24 | Cc1ccc(C(C)C)cc1OCCCCC[N+](C)(C)CC(=O)N(CC(C)C)CC(C)C.[Br-] | 2 | 4 | 4 | 64 | 32 | 64
25 | CC1(C)S[C@@H]2[C@H](NC(=O)[C@H](N)c3ccccc3)C(=O)N2[C@H]1C(=O)O [AMPICILLIN] | 0.5 (≈ 1.43 µM) | 64 (≈ 183 µM) | 0.5 (≈ 1.43 µM) | 16 (≈ 45.8 µM) | 4 (≈ 11.4 µM) | > 128
26 | CCCNC(=O)C[N+](C)(C)CCCCCOc1cc(C(C)C)ccc1C.[Br-] | 32 | 128 | 64 | 128 | 128 | > 128
27 | CCCCCNC(=O)C[N+](C)(C)CCCOc1cc(C(C)C)ccc1C.[Br-] | 8 | 32 | 16 | 32 | 32 | 128
28 | CCCCCCNC(=O)C[N+](C)(C)CCCOc1cc(C)ccc1C(C)C.[Br-] | 4 | 4 | 4 | 8 | 16 | 32
29 | Cc1ccc(C(C)C)c(OCCC[N+](C)(C)CC(=O)N2CCSCC2)c1.[Br-] | 64 | 64 | 128 | > 128 | > 128 | > 128
30 | Cc1ccc(C(C)C)c(OCCC[N+](C)(C)CC(=O)N(CC(C)C)CC(C)C)c1.[Br-] | 4 | 8 | 8 | 16 | 64 | > 128
31 | Cc1ccc(C(C)C)c(OCCCC[N+](C)(C)CC(=O)N(C(C)C)C(C)C)c1.[Br-] | 8 | 16 | 16 | 32 | 128 | > 128
32 | Cc1ccc(C(C)C)c(OCCCC[N+](C)(C)CC(=O)N2CCSCC2)c1.[Br-] | 64 | 64 | 64 | > 128 | > 128 | > 128
33 | CCCCNC(=O)C[N+](C)(C)CCCCOc1cc(C(C)C)ccc1C.[Br-] | 16 | 64 | 32 | 64 | 64 | > 128
34 | CCCCCCN(CCCCCC)C(=O)C[N+](C)(C)CCCOc1cc(C(C)C)ccc1C.[Br-] | 0.25 | 8 | 0.25 | 1 | 4 | 16
35 | CCCCCCNC(=O)C[N+](C)(C)CCCOc1cc(C(C)C)ccc1C.[Br-] | 4 | 8 | 4 | 8 | 16 | 32
36 | Cc1ccc(C(C)C)c(OCCC[N+](C)(C)CC(=O)N(C(C)C)C(C)C)c1.[Br-] | 16 | 16 | 16 | 32 | 128 | > 128
37 | CCCCCCNC(=O)C[N+](C)(C)CCCCCOc1cc(C)ccc1C(C)C.[Br-] | 2 | 2 | 2 | 4 | 8 | 32
38 | CCCCCNC(=O)C[N+](C)(C)CCCOc1cc(C)ccc1C(C)C.[Br-] | 8 | 16 | 16 | 32 | 32 | > 128
39 | CCCCCCNC(=O)C[N+](C)(C)CCCCOc1cc(C)ccc1C(C)C.[Br-] | 2 | 1 | 4 | 8 | 16 | 64
40 | Cc1ccc(C(C)C)c(OCCCCC[N+](C)(C)CC(=O)N(CC(C)C)CC(C)C)c1.[Br-] | 2 | 2 | 4 | 8 | 32 | 128
41 | CCCCNC(=O)C[N+](C)(C)CCCCOc1cc(C)ccc1C(C)C.[Br-] | 16 | 16 | 64 | 128 | 128 | > 128
42 | CCCCCCNC(=O)C[N+](C)(C)CCCCCOc1cc(C(C)C)ccc1C.[Br-] | 2 | 2 | 2 | 8 | 8 | 16
43 | CCCNC(=O)C[N+](C)(C)CCCCCOc1cc(C)ccc1C(C)C.[Br-] | 32 | 32 | 64 | 128 | 128 | > 128
44 | CCCCN(CCCC)C(=O)C[N+](C)(C)CCCOc1cc(C)ccc1C(C)C.[Br-] | 8 | 8 | 16 | 32 | 128 | > 128
